According to patent US4228176A, “Thromboxane inhibition with burimamide” (Nelson Research & Development Company, priority 1979, dated 1980):
Read-outs that look alike come from different tables or passages of the source.

Tests used:
Thromboxane Synthetase [1] = details: cited from earlier work
Thromboxane Biosynthesis = assay: Inhibition of thromboxane biosynthesis; assay type: biochemical; design: % Inhibition of Thromboxane Biosynthesis: unit of the concentration uncertain; details: for % INHIBITION (Inhibition of Thromboxane Biosynthesis): concentration of 100 mg/ml (Table 2)
Text: A comparison of the inhibition of thromboxane biosynthesis between imidazole and Burimamide was made.
A number of structurally related compounds including other H2 blockers were compared for inhibition of thromboxane activity.

H2-receptor = details: cited from earlier work
[2] = tested on: histamineinduced gastric acid secretion; details: cited from earlier work
Thromboxane Synthetase [3] = details: human platelets; cited from earlier work
[4] = concentration 0.5 (unit uncertain)
[5] = concentration 1 (unit uncertain)
[6] = concentration 2 (unit uncertain)
[7] = concentration 5 (unit uncertain)
[8] = concentration 10 (unit uncertain)
[9] = concentration 20 (unit uncertain)
[10] = concentration 50 (unit uncertain)

For `Cn1ccnc1` [1-methyl imidazole], the “inhibition of thromboxane biosynthesis, in words” value (Thromboxane Synthetase [1]) is given as “potent inhibitor of thromboxane biosynthesis”.
For `NCCc1ccccn1` [2-(2-pyridyl) Ethylamine], the “% INHIBITION (Inhibition of Thromboxane Biosynthesis)” value (Thromboxane Biosynthesis) was 20%.
In the case of `NCCc1nccs1` [2-(2-thiazolyl) Ethylamine], the “% INHIBITION (Inhibition of Thromboxane Biosynthesis)” value (Thromboxane Biosynthesis) is reported as 19%.
For `Cc1[nH]cnc1CCN` [4-Methylhistamine], the “% INHIBITION (Inhibition of Thromboxane Biosynthesis)” value (Thromboxane Biosynthesis) was 0%.
In the case of `CNC(=S)NCCCCc1c[nH]cn1` [Burimamide, N-methyl-N'-[4-(imidazole-4-yl)butyl] thiourea], the “pharmacologic activity at H2-receptor, in words” value (H2-receptor) is given as “H2 -receptor blocker”, the “thromboxane biosynthesis inhibition, in words” value (Thromboxane Biosynthesis) is given as “potent, selective blocker of thromboxane biosynthesis” and the “% Inhibition of Thromboxane Biosynthesis” value (Thromboxane Biosynthesis; concentration 100 mg/ml (Table 1)) is given as 98%. For the same molecule, the “% Inhibition of Thromboxane Biosynthesis” value (Thromboxane Biosynthesis; [4]) was 15%, the “% Inhibition of Thromboxane Biosynthesis” value (Thromboxane Biosynthesis; [5]) was 21% and the “% Inhibition of Thromboxane Biosynthesis” value (Thromboxane Biosynthesis; [6]) was 36%. For the same molecule, the “% Inhibition of Thromboxane Biosynthesis” value (Thromboxane Biosynthesis; [7]) was 47%, the “% Inhibition of Thromboxane Biosynthesis” value (Thromboxane Biosynthesis; [8]) was 58% and the “% Inhibition of Thromboxane Biosynthesis” value (Thromboxane Biosynthesis; [9]) was 73%. For the same molecule, the “% Inhibition of Thromboxane Biosynthesis” value (Thromboxane Biosynthesis; [10]) was 86%, the “% INHIBITION (Inhibition of Thromboxane Biosynthesis)” value (Thromboxane Biosynthesis) was 100% and the “histamine-induced gastric acid secretion, in words” value [2] was “inhibit histamineinduced gastric acid secretion”.
For `CNC(=NC#N)NCCSCc1[nH]cnc1C` [Cimetidine], the “thromboxane biosynthesis inhibition, in words” value (Thromboxane Biosynthesis) was “only minor thromboxane inhibitory activity” and the “% INHIBITION (Inhibition of Thromboxane Biosynthesis)” value (Thromboxane Biosynthesis) was 19%.
With `Clc1cccc(Cl)c1NC1=NCCN1` [Clonidine] the “% INHIBITION (Inhibition of Thromboxane Biosynthesis)” value (Thromboxane Biosynthesis) was 0%.
For `CN(C)CCCSC(=N)N` [Dimaprit], the “% INHIBITION (Inhibition of Thromboxane Biosynthesis)” value (Thromboxane Biosynthesis) was 35%.
With `NCCc1c[nH]cn1` [Histamine] the “% INHIBITION (Inhibition of Thromboxane Biosynthesis)” value (Thromboxane Biosynthesis) was 17%.
For `c1c[nH]cn1` [Imidazole], the “inhibition of thromboxane biosynthesis, in words” value (Thromboxane Synthetase [3]) is listed as “selective inhibitor of thromboxane biosynthesis”, the “thromboxane biosynthesis inhibition, in words” value (Thromboxane Biosynthesis) is listed as “only compound comparable in inhibition of thromboxane biosynthesis” and the “% Inhibition of Thromboxane Biosynthesis” value (Thromboxane Biosynthesis; [4]) is listed as 0%. For the same molecule, the “% Inhibition of Thromboxane Biosynthesis” value (Thromboxane Biosynthesis; [5]) was 25%, the “% Inhibition of Thromboxane Biosynthesis” value (Thromboxane Biosynthesis; [6]) was 53% and the “% Inhibition of Thromboxane Biosynthesis” value (Thromboxane Biosynthesis; [7]) was 68%. For the same molecule, the “% Inhibition of Thromboxane Biosynthesis” value (Thromboxane Biosynthesis; [8]) was 81%, the “% Inhibition of Thromboxane Biosynthesis” value (Thromboxane Biosynthesis; [9]) was 89% and the “% Inhibition of Thromboxane Biosynthesis” value (Thromboxane Biosynthesis; [10]) was 88%.
With `N[C@@H](Cc1c[nH]cn1)C(=O)O` [L-Histidine] the “% INHIBITION (Inhibition of Thromboxane Biosynthesis)” value (Thromboxane Biosynthesis) was 17%.
In the case of `c1ccc([C@H]2CN3CCSC3=N2)cc1` [Levamisole], the “% INHIBITION (Inhibition of Thromboxane Biosynthesis)” value (Thromboxane Biosynthesis) is reported as 6%.
With `CNC(=S)NCCSCc1[nH]cnc1C` [Metiamide] the “thromboxane biosynthesis inhibition, in words” value (Thromboxane Biosynthesis) was “only minor thromboxane inhibitory activity” and the “% INHIBITION (Inhibition of Thromboxane Biosynthesis)” value (Thromboxane Biosynthesis) was 33%.
For `CC(=O)NCCc1c[nH]cn1` [N-acetyl Histamine], the “% INHIBITION (Inhibition of Thromboxane Biosynthesis)” value (Thromboxane Biosynthesis) was 26%.
With `CC(=O)N[C@@H](Cc1c[nH]cn1)C(=O)O` [N-acetyl Histidine] the “% INHIBITION (Inhibition of Thromboxane Biosynthesis)” value (Thromboxane Biosynthesis) was 0%.
